Reference: patent US11975044B2, “Methods for treating cancers using fat specific protein 27 (FSP27) compositions” (Ohio University, priority 2017, dated 2024)
Read-outs that look alike come from different tables or passages of the source. Residues, ends and D or L forms follow the SMILES beside them. No end group written: not given here.

Tests used:
Assay type in all cases: cell-based
[1] = system: SK-MEL-28 human melanoma cells; settings: 48 hr; for efficacy in inhibiting cell viability: human melanoma, 50 nM; for inhibition of cell viability: human, 100 nM
Text: FIG. 10: Effect of CIDEC and fragment peptides on human melanoma cell (SK-MEL-28) viability. [full-length CIDEC, #1, #2, #4, #5, #6=shorter fragment peptides of full-length CIDEC]; Cell: human melanoma cells SK-MEL-28; Assay: Cell viability assay (Presto-Blue, Invitrogen); Doses (nM): 0, 50, 100; Treatment period (hr): 48.
(§1) Human cancer cell lines (part of NCI-60 panel of human cancer cells)—SK-MEL-5 (melanoma), SK-MEL-28 (melanoma), MCF-7 (breast cancer), 786-0 (renal cancer), A498 (renal cancer), Hep-G2 (liver cancer), SK-HEP-1 (liver cancer), PANC-1 (pancreatic cancer), and normal human skin fibroblast cells MALME-3 cells were obtained from American Type Culture Collection (ATCC; Manassas, VA). The cells were grown and maintained in corresponding complete growth medium—PANC-1 in DMEM medium (ATCC), 786-0 in RPMI-1640 medium, remaining cell lines in EMEM media (ATCC), and MALME-3 in McCoy's medium (ATCC)—as indicated by ATCC protocols. Complete growth media was supplemented with 10% fetal bovine serum (FBS; ATCC) and 1× antibiotic-antimycotic (Thermo Fisher Scientific, Waltham, MA). MALME-3 cells were grown in McCoy's medium (ATCC) supplemented with 15% FBS and 1× antibiotic-antimycotic. Cells were grown at 37C/5% CO2 in a humidified incubator. Media was replaced every third day.
Recombinant hGH was purchased from Antibodies Online (Atlanta, GA), GH antagonist (GHA; Somavert) was obtained from Pfizer (New York City, NY), full length CIDEC was purchased from Abcam (Cambridge, UK) and CIDEC fragment peptides were synthesized at Genscript (Piscataway, NJ). No hGH or GHA was present in the media or added externally unless specifically mentioned. […]
(§2) A resazurin based absorption assay was performed measuring cell proliferation, as a measure of inhibition of cell growth/viability. There are several commonly practiced assays using tetrazolium (MTT, MTS, XTT), or resazurin which give a quantitative reflection of cell viability. […] Proliferating cells can be quantified by spectrophotometric measurement of a bright pink fluorescent product called resorufin (stable for >4 hr) formed when mildly fluorescent blue resazurin enters a reducing intracellular environment characteristic of proliferating cells. […] The resazurin assay was performed following the respective treatment periods and resorufin absorbance was measured at 570 nm (reference wavelength=600 nm) using Spectramax250 (Molecular Devices, Sunnyvale, CA) and SoftmaxPro software. […]
A 1% (w/v) resazurin (Sigma-Aldrich) solution in 1×PBS was made and filter-sterilized. […] Inside the proliferating cells mildly fluorescent blue resazurin is reduced to a bright pink fluorescent product called resorufin (stable for 4 hr), which is a quantitative measure of the percentage of proliferating cells. […]

[2] = system: HepG2 human liver cancer (hepatocellular carcinoma) cells; assay: cells; settings: for efficacy in inhibiting cell viability: human liver cancer, 50 nM; for inhibition of cell viability: human, 100 nM
Protocol: as §1
(§3) Recombinant hGH was purchased from Antibodies Online (Atlanta, GA), GH antagonist (GHA; Somavert) was obtained from Pfizer (New York City, NY), full length CIDEC was purchased from Abcam (Cambridge, UK) and CIDEC fragment peptides were synthesized at Genscript (Piscataway, NJ). No hGH or GHA was present in the media or added externally unless specifically mentioned. For hGH treatment, 16 hr. after cell seeding (or 24 hr. post-transfection), any GH or GHA or CIDEC or peptides were added at specific concentrations. […]
(§4) A resazurin based absorption assay was performed measuring cell proliferation, as a measure of inhibition of cell growth/viability. There are several commonly practiced assays using tetrazolium (MTT, MTS, XTT), or resazurin which give a quantitative reflection of cell viability. Although ATP detection assay is the most sensitive of the available options, resazurin-based assay is considered adequate and is routinely used to measure compound EC50s or cell viability following cytotoxic treatments. A stock solution of 1% (w/v) resazurin (Sigma-Aldrich #R7017) in 1×PBS was made and filter-sterilized. The final concentration of resazurin in the assay was 0.004%. Proliferating cells can be quantified by spectrophotometric measurement of a bright pink fluorescent product called resorufin (stable for >4 hr) formed when mildly fluorescent blue resazurin enters a reducing intracellular environment characteristic of proliferating cells. Cells were seeded at 10,000 cells/cm^2 into 96-well plates and transfected as described above. The resazurin assay was performed following the respective treatment periods and resorufin absorbance was measured at 570 nm (reference wavelength=600 nm) using Spectramax250 (Molecular Devices, Sunnyvale, CA) and SoftmaxPro software. In all cases, cells were incubated at 37C/5% CO2 for 1 hr following resazurin addition. The resazurin assay for cell proliferation was used to measure EC-50 of relevant drugs and Graph Pad Prism was used to calculate EC-50 shifts (EC50 shift=EC50 of treated cell line/EC50 of parental cell line.
A 1% (w/v) resazurin (Sigma-Aldrich) solution in 1×PBS was made and filter-sterilized. The final concentration of resazurin in the assay was 0.004%. Inside the proliferating cells mildly fluorescent blue resazurin is reduced to a bright pink fluorescent product called resorufin (stable for 4 hr), which is a quantitative measure of the percentage of proliferating cells. In all cases, cells were incubated at 37C/5% CO2 for 45-60 minutes for adequate sensitivity of detection. Briefly, cells were seeded at 10,000 cells/cm^2 into 96-well plates and transfected as described above. The resazurin assay was performed 60 hr after transfection (unless specified otherwise) and resorufin absorbance was measured at 570 nm (reference wavelength=600 nm) using Spectramax250 (Molecular Devices) and SoftmaxPro v4.7.1 software. […]

[3] = system: 786-O human renal cancer (clear cell renal cell carcinoma) cells; settings: for efficacy in inhibiting cell viability: human kidney cancer, 50 nM; for efficacy in inhibiting cell viability / inhibition of cell viability: 48 hr; for inhibition of cell viability: human, 100 nM
Text: FIG. 11: Effect of CIDEC and fragment peptides on human renal cancer cell (786-0) viability. [full-length CIDEC, #1, #2, #4, #5, #6=shorter fragment peptides of full-length CIDEC]; Cell: human renal cancer cells; Assay: Cell viability assay (Presto-Blue, Invitrogen); Doses (nM): 0, 50, 100; Treatment period (hr): 48.
as §1, §3, §4
A 1% (w/v) resazurin (Sigma-Aldrich) solution in 1×PBS was made and filter-sterilized. The final concentration of resazurin in the assay was 0.004%. Inside the proliferating cells mildly fluorescent blue resazurin is reduced to a bright pink fluorescent product called resorufin (stable for 4 hr), which is a quantitative measure of the percentage of proliferating cells. In all cases, cells were incubated at 37C/5% CO2 for 45-60 minutes for adequate sensitivity of detection. Briefly, cells were seeded at 10,000 cells/cm^2 into 96-well plates and transfected as described above. […]

[4] = system: cells; assay: Anti-cancer effect of FSP27 segment in cells
[5] = system: human normal fibroblast cells; assay: Cell viability assay (Presto-Blue / resazurin), normal fibroblasts; settings: exposure to up to 100 nM CIDEC, 24 hr
Protocol: FIG. 6: Effect of CIDEC on human normal fibroblast cells; Cell: human normal fibroblast cells; Assay: Cell viability assay (Presto-Blue, Invitrogen); Doses (nM): 0, 50, 100 nM; Treatment period (hr): 24.
Human cancer cell lines (part of NCI-60 panel of human cancer cells)—SK-MEL-5 (melanoma), SK-MEL-28 (melanoma), MCF-7 (breast cancer), 786-0 (renal cancer), A498 (renal cancer), Hep-G2 (liver cancer), SK-HEP-1 (liver cancer), PANC-1 (pancreatic cancer), and normal human skin fibroblast cells MALME-3 cells were obtained from American Type Culture Collection (ATCC; Manassas, VA). […]
as §2

[6] = system: PANC-1 human pancreatic ductal adenocarcinoma cells; assay: Cell viability assay (Presto-Blue / resazurin), PANC-1
Protocol: as §1, with “MALME-3 cells were grown in McCoy's medium (ATCC) supplemented with 15% FBS and 1× antibiotic-antimycotic. Cells were grown at 37C/5% CO2 in a humidified incubator. Media was replaced every third day.” left out
(§5) A resazurin based absorption assay was performed measuring cell proliferation, as a measure of inhibition of cell growth/viability. There are several commonly practiced assays using tetrazolium (MTT, MTS, XTT), or resazurin which give a quantitative reflection of cell viability. […] Proliferating cells can be quantified by spectrophotometric measurement of a bright pink fluorescent product called resorufin (stable for >4 hr) formed when mildly fluorescent blue resazurin enters a reducing intracellular environment characteristic of proliferating cells. […]

[7] = system: SK-MEL-28 human melanoma cells
[8] = system: MCF-7 human breast cancer cells; assay: Cell viability assay (Presto-Blue / resazurin), MCF-7
Protocol: as §1, with “MALME-3 cells were grown in McCoy's medium (ATCC) supplemented with 15% FBS and 1× antibiotic-antimycotic. Cells were grown at 37C/5% CO2 in a humidified incubator. Media was replaced every third day.” left out
as §5

Molecule: CC[C@H](C)[C@H](NC(=O)[C@H](CCCCN)NC(=O)[C@H](CCCCN)NC(=O)[C@H](C)NC(=O)[C@@H]1CCCN1C(=O)[C@H](CCCCN)NC(=O)[C@H](Cc1c[nH]cn1)NC(=O)[C@H](CO)NC(=O)[C@H](CC(C)C)NC(=O)[C@H](CO)NC(=O)[C@H](CC(C)C)NC(=O)[C@@H]1CCCN1C(=O)[C@H](Cc1c[nH]cn1)NC(=O)[C@H](CCCNC(=N)N)NC(=O)[C@@H](NC(=O)CNC(=O)[C@H](CCC(N)=O)NC(=O)[C@H](CCC(=O)O)NC(=O)[C@@H](N)CO)[C@@H](C)O)C(=O)N[C@@H](CC(=O)O)C(=O)N[C@H](C(=O)O)C(C)C [Cf4] (H-SEQGTRHPLSLSHKPAKKIDV-OH; N-terminus and C-terminus assumed)
- efficacy in inhibiting cell viability [1]: highly efficacious
- inhibition of cell viability [1]: 100%
- efficacy in inhibiting cell viability ([2]; 48 hr): highly efficacious
- inhibition of cell viability ([2]; 48 hr): 100%
- efficacy in inhibiting cell viability [3]: highly efficacious
- inhibition of cell viability [3]: 100%

Molecule: COc1cccc2c1C(=O)c1c(O)c3c(c(O)c1C2=O)C[C@@](O)(C(=O)CO)C[C@@H]3O[C@H]1C[C@H](N)[C@H](O)[C@H](C)O1 [doxorubicin, reference compound]
- EC50 ([2]; Homo sapiens, HepG2, read-out: doxorubicin EC50 for HepG2): 190 nM
- cells killed ([2]; doxorubicin 300 nM, in absence of CIDEC): > 90%

Molecule: YDLHCCGAKRIMKEAFRWALFSMQATGHVLLGTSCYLQQLLDATEEGQ (cysteines drawn unpaired) [Cf2]
- efficacy in inhibiting cell viability [1]: highly efficacious
- inhibition of cell viability [1]: 100%
- efficacy in inhibiting cell viability ([2]; 48 hr): highly efficacious
- inhibition of cell viability ([2]; 48 hr): 100%
- efficacy in inhibiting cell viability [3]: highly efficacious
- inhibition of cell viability [3]: 100%

Molecule: segment 120-140: segment of FSP27, amino acids 120-140; FIG. 13 discloses SEQ ID NO: 4, so possibly Cf4 (SEQGTRHPLSLSHKPAKKIDV)
- efficacy towards anti-cancer effect in cells [4]: maximum efficacy

B1: CIDEC: human full-length CIDEC (FSP27) protein, purchased from Abcam (protein, UniProt Q96AQ7 1-238, looked up)
chain: MEYAMKSLSLLYPKSLSRHVSVRTSVVTQQLLSEPSPKAPRARPCRVSTADRSVRKGIMAYSLEDLLLKVRDTLMLADKPFFLVLEEDGTTVETEEYFQALAGDTVFMVLQKGQKWQPPSEQGTRHPLSLSHKPAKKIDVARVTFDLYKLNPQDFIGCLNVKATFYDTYSLSYDLHCCGAKRIMKEAFRWALFSMQATGHVLLGTSCYLQQLLDATEEGQPPKGKASSLIPTCLKILQ
modifications: full-length
notes: human full-length CIDEC (FSP27) protein, purchased from Abcam
- decrease in cell viability of normal cells [5]: no significant decrease in cell viability
- EC50 ([6]; PANC1, 0-400 nM CIDEC): 132 nM
- IC50 ([6]; PANC-1, 24 hr, doses 0-400 nM, read-out: IC50, sigmoid inhibition curve of cell viability): 132 nM
- improvement of drug effects in human melanoma ([7]; 50 nM CIDEC plus anti-cancer drugs, 48 hr): did not improve drug effects
- IC50 ([7]; SK-MEL-28, 24 hr, doses 0-400 nM, read-out: IC50, sigmoid inhibition curve of cell viability): > 400 nM
- EC50 ([7]; SK-MEL-28, up to 400 nM CIDEC, read-out: EC50 (cell viability)): > 400 nM
- improvement of cell inhibition rate above that of doxorubicin or vemurafenib ([7]; co-administration, 24 hr, doxorubicin 300 nM, vemurafenib 50 nM): did not improve the cell inhibition rate
- EC50 ([8]; MCF-7, 0-400 nM CIDEC): 187 nM
- IC50 ([8]; MCF-7, 24 hr, doses 0-400 nM, read-out: IC50, sigmoid inhibition curve of cell viability): 187 nM
- effect on efficacy of sorafenib-tosylate against liver cancer ([2]; 50 nM CIDEC plus anti-cancer drug, 48 hr): significant increase in efficacy
- EC50 ([2]; HepG2, 0-400 nM CIDEC, read-out: EC50 (dose that causes 50% decrease of cell viability)): 65 nM
- IC50 ([2]; HepG2, 24 hr, doses 0-400 nM, read-out: IC50, sigmoid inhibition curve of cell viability): 65 nM
- decrease in cell viability of liver cancer cells treated with sorafenib-tosylate ([2]; co-administration of fl-CIDEC with sorafenib-tosylate (1000 nM), 24 hr): 2 fold
- EC50 ([3]; 786-0, up to 400 nM CIDEC, read-out: EC50 (cell viability)): > 400 nM
- IC50 ([3]; 786-O, 24 hr, doses 0-400 nM, read-out: IC50, sigmoid inhibition curve of cell viability): > 400 nM
